# Measured values as given in article PMC4718804 (eLife, 2015).
# Like-named read-outs stand apart in the source and are kept apart here.
# Key:
# [1] = tested on: transfer of LDL-derived cholesterol from lysosomes to ER in CHO-7 cells; assay type: cell-based, hamster
# NPC1 = NPC1 (Cricetulus griseus, UniProt Q9JLG3); assay type: binding, hamster
# [2] = tested on: lysosomal degradation of 125I-LDL in CHO-7 cells; assay type: cell-based, hamster
# [3] = tested on: TR-4139 cells (CHO-7 cells stably expressing excess human NPC1); assay type: cell-based, hamster
# [4] = tested on: SREBP-2 cleavage in CHO-7 cells; assay type: cell-based, hamster
# [5] = tested on: cholesterol esterification stimulated by 25-hydroxycholesterol; assay type: cell-based
# ER membranes = assay type: biochemical
# wild-type human NPC1 = wild-type human NPC1 (Homo sapiens, UniProt O15118); assay type: binding
# Ebola virus [6] = assay type: cell-based
# Ebola virus [7] = settings: cited from earlier work
# NTD of recombinant NPC1 = settings: cited from earlier work
# [8] = tested on: cholesterol egress from lysosomes; settings: cited from earlier work
# NPC1L1 = NPC1L1 (Homo sapiens, UniProt Q9UHC9); assay type: binding
# purified NPC1 = purified NPC1 (Homo sapiens, UniProt O15118); assay type: binding
# [9] = read-out: Inhibitory constant (Ki): concentration inhibiting incorporation of [14C]oleate into cholesteryl [14C]oleate by 50%
# [10] = read-out: Ki for inhibition of esterification of LDL-derived cholesterol
# NPC1, sequence (Q9JLG3 23-1277 limits assumed): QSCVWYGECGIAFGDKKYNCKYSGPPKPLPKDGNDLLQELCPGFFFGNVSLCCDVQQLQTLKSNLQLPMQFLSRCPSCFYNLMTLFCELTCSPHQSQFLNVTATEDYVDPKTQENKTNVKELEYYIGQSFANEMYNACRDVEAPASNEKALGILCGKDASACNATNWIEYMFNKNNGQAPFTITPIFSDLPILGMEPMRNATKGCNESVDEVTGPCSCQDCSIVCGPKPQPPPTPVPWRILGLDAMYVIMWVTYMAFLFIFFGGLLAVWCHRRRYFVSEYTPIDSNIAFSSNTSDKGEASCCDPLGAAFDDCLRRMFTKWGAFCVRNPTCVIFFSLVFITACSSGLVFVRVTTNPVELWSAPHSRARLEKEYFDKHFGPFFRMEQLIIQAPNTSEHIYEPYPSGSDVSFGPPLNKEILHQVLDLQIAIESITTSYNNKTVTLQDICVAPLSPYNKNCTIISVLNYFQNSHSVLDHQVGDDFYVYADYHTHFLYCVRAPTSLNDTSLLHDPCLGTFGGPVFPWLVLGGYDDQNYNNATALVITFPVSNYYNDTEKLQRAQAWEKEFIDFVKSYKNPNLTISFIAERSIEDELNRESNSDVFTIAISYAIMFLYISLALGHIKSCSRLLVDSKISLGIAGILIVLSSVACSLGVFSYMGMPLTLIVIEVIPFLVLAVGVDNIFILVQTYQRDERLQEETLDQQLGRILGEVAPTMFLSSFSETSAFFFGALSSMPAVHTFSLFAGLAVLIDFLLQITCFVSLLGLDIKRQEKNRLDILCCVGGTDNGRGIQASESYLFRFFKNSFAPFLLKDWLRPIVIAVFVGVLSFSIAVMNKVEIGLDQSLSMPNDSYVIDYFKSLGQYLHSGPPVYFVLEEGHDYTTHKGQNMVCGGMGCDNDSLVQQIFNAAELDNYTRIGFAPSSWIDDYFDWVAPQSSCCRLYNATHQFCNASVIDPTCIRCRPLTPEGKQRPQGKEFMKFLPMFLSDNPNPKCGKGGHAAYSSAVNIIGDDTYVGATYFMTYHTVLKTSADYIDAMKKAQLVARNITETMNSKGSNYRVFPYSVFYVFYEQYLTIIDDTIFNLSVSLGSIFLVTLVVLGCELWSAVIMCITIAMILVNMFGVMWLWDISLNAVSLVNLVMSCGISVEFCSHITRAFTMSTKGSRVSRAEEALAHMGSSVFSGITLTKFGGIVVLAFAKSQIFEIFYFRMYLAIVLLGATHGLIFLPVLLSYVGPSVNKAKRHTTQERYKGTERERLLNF
# wild-type human NPC1, sequence (O15118 23-1278): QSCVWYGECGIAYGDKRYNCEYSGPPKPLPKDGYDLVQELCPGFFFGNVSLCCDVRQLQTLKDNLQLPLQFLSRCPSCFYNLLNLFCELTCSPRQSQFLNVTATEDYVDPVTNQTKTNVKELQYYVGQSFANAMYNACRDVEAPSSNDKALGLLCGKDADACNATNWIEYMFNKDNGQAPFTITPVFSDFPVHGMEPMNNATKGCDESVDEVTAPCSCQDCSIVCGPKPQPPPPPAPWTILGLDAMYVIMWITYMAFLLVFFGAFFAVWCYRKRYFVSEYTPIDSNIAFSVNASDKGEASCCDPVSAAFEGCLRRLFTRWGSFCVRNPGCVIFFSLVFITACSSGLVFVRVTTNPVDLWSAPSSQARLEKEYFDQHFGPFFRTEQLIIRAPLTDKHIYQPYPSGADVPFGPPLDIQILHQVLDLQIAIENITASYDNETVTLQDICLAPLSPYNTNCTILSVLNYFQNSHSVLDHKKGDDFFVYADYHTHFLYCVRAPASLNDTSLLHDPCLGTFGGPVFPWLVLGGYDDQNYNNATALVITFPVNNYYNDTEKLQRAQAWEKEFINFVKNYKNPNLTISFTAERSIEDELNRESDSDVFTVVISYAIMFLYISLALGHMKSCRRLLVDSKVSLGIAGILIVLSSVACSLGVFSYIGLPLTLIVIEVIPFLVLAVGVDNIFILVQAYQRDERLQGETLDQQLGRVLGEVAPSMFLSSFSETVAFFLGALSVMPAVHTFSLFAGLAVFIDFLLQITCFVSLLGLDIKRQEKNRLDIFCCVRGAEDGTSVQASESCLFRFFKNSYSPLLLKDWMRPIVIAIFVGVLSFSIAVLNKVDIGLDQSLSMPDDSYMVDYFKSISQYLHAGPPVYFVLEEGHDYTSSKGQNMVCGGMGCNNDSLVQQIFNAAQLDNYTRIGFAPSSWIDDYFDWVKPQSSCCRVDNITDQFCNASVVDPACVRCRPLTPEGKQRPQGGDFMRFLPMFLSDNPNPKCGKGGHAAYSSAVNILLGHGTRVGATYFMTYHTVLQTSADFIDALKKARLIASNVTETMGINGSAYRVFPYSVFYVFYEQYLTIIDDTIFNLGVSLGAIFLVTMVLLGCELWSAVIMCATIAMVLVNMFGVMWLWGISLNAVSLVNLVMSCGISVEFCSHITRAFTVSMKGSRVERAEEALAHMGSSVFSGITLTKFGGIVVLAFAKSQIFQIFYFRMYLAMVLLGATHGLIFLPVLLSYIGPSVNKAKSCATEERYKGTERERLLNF
# purified NPC1, sequence (O15118 23-1278): as above
# NPC1L1, sequence (Q9UHC9 22-1359): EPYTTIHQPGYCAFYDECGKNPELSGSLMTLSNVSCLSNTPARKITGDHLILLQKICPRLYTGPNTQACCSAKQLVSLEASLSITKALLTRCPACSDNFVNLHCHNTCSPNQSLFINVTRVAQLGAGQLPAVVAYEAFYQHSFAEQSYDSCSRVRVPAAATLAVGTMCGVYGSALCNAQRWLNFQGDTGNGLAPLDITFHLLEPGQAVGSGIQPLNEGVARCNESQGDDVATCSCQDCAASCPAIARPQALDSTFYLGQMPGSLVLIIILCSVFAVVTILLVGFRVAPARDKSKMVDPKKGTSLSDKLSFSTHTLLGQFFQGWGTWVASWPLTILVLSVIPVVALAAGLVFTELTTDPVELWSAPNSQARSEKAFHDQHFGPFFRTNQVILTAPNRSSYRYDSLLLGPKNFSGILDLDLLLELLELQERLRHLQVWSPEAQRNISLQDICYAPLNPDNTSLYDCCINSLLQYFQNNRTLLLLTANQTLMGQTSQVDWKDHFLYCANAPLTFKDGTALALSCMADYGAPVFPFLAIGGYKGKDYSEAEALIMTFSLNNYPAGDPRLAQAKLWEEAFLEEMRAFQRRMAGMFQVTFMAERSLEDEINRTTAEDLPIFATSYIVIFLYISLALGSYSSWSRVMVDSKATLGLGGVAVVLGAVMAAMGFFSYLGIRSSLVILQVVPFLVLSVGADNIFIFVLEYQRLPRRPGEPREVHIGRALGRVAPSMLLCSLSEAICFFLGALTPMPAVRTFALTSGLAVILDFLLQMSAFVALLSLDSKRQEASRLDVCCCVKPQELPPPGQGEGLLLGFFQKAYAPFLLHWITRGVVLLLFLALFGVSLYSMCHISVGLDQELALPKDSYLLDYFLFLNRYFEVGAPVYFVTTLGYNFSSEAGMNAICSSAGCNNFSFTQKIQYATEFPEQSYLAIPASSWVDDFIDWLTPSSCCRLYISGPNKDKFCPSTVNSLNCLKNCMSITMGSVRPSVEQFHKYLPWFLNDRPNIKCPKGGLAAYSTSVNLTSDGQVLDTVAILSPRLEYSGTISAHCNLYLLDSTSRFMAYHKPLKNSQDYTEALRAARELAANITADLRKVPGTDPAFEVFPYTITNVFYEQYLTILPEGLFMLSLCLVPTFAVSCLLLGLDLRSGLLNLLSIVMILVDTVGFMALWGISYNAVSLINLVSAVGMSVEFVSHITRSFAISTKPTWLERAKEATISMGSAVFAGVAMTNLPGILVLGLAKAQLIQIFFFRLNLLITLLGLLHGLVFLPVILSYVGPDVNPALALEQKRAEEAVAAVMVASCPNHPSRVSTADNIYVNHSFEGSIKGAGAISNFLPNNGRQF
compound,measurement,setting,value
CCCN(CCOC1CCC2(C)C(=CCC3C4CCC(=O)C4(C)CCC32)C1)Cc1cn(-c2cccnc2)nn1 (stereo not drawn) [compound B],Ki,[1]; [9],10 nM
same,"competition of U-X crosslinking to NPC1, immunoprecipitation",NPC1,blocked
"CCN(CC)CCCC(C)Nc1ccnc2cc(Cl)ccc12 (stereo not drawn) [chloroquine, reference compound]",effect on release of LDL-derived cholesterol (cholesterol esterification),[1],blocked
same,effect on degradation of 125I-LDL (125I-monoiodotyrosine released into medium),[2],blocked the degradation
"CCN(CC)CCOC1CCC2(C)C(=CCC3C4CCC(=O)C4(C)CCC32)C1 (stereo not drawn) [U18666A, 3-beta-[2-(diethylamino)ethoxy]androst-5-en-17-one, reference compound]",concentration at which transport of LDL-derived cholesterol from lysosomes to ER is inhibited (as low as),[1],0.03 µM
same,effect on lysosomal exit of cholesterol (incorporation of [14C]oleate into cholesteryl [14C]oleate),[1],inhibited the lysosomal exit of cholesterol
same,Ki,[1]; [9],30 nM
same,Ki,[1]; [10],20 nM
same,rise of the threshold for U18666A inhibition by overexpression of NPC1,[3],more than 100 fold
same,Ki,[3]; [10],2700 nM
same,effect on the FCS-induced reduction of nuclear SREBP-2,[4],prevented this reduction
same,effect on degradation of 125I-LDL (125I-monoiodotyrosine released into medium),[2],did not inhibit degradation
same,effect on cholesterol esterification stimulated by 25-hydroxycholesterol,[5],did not block
same,effect on cholesteryl [14C]oleate formation when cholesterol is added to ER membranes in vitro,ER membranes,does not inhibit
same,"competition of U-X crosslinking to NPC1, immunoprecipitation",NPC1,blocked
same,"competition of U-X crosslinking to the 190-kDa protein (NPC1), in-gel fluorescence",NPC1,disappeared
same,competition of U-X crosslinking to transfected wild-type NPC1,wild-type human NPC1,competed
same,fold higher concentration required for inhibition of Ebola than for inhibition of cholesterol export,Ebola virus [6],100 fold
same,concentrations of U18666A required to inhibit Ebola virus infection,Ebola virus [7],3 to 12 µM
same,effect on binding of [3H]25-hydroxycholesterol to the NTD of recombinant NPC1,NTD of recombinant NPC1,does not block binding
same,fold more potent than imipramine,[8],more than 100 fold
same,pKa,physchem,9.41
C#CCOc1ccc(C(=O)c2ccc(C(=O)OCCN(CC)CCOC3CCC4(C)C(=CCC5C6CCC(=O)C6(C)CCC54)C3)cc2)cc1 (stereo not drawn) [U-X],effect on lysosomal exit of cholesterol (incorporation of [14C]oleate into cholesteryl [14C]oleate),[1],inhibited the lysosomal exit of cholesterol
same,Ki,[1]; [9],60 nM
same,effect on the FCS-induced reduction of nuclear SREBP-2,[4],blocked
same,effect on degradation of 125I-LDL (125I-monoiodotyrosine released into medium),[2],did not inhibit degradation
same,crosslinking to NPC1,NPC1,crosslinks
same,fluorescent NPC1 after UV crosslinking of U-X,wild-type human NPC1,detected
same,crosslinking to NPC1L1,NPC1L1,did not crosslink
same,crosslinking to purified NPC1,purified NPC1,unable to crosslink
CCCN(CCOC1CCC2(C)C(=CCC3C4CCC(=O)C4(C)CCC32)C1)Cc1cn(CCCCCCOC(=O)CCCCC2SCC3NC(=O)NC32)nn1 (stereo not drawn) [compound C],Ki,[1]; [9],20 nM
same,"competition of U-X crosslinking to NPC1, immunoprecipitation",NPC1,blocked
CCC(CC)CCOC1CCC2(C)C(=CCC3C4CCC(=O)C4(C)CCC32)C1 (stereo not drawn) [compound D],Ki,[1]; [9],4700 nM
same,"competition of U-X crosslinking to NPC1, immunoprecipitation",NPC1,not inhibited
CCN(CC)CCOC1CCCCC1 [compound E],Ki,[1]; [9],> 10000 nM
same,"competition of U-X crosslinking to NPC1, immunoprecipitation",NPC1,not inhibited
CCC(CC)CCOC1CCC2(C)C(=CCC3C2CCC2(C)C3CCC2N(C)C)C1 (stereo not drawn) [compound A],fold less active than U18666A in the cholesterol esterification assay,[1],~100 fold
same,Ki,[1]; [9],4500 nM
same,effect on the FCS-induced reduction of nuclear SREBP-2,[4],no activity
same,"competition of U-X crosslinking to NPC1, immunoprecipitation",NPC1,not inhibited
same,"competition of U-X crosslinking to the 190-kDa protein (NPC1), in-gel fluorescence",NPC1,not
same,pKa,physchem,10.2
